Data from paper PMC12291913 (Antibiotics, 2025).
≈ marks a conversion by molar mass, not a printed value. Where “and” joins values, the source holds several entries; their conditions need not be identical. Identical values can stand only once. Like-named read-outs stand apart in the source and are kept apart here.

Tests used:
[1] = system: M. avium clinical isolate Koav 2 (WT); assay: microbe, parasite or virus in culture; type: cell-based; conditions: Mycobacterium avium, drug alone, day 14
[2] = system: M. avium clinical isolate Koav 2 (WT); assay: microbe, parasite or virus in culture; type: cell-based; conditions: checkerboard; for MIC: Mycobacterium avium
[3] = system: M. avium clinical isolate Koav 1 (WT); assay: microbe, parasite or virus in culture; type: cell-based; conditions: checkerboard
[4] = system: M. avium clinical isolate Koav 19 (WT); assay: microbe, parasite or virus in culture; type: cell-based; conditions: for MIC: Mycobacterium avium
[5] = system: M. avium clinical isolate Koav 3 (GyrA Asp95Gly); type: cell-based, M. avium subsp. hominissuis
[6] = system: M. avium clinical isolate Cl-A-2 (GyrA Asp95Tyr); type: cell-based, M. avium subsp. hominissuis
[7] = system: M. avium clinical isolate Koav 15 (WT); assay: microbe, parasite or virus in culture; type: cell-based; conditions: Mycobacterium avium, drug alone, day 14, read-out: MIC
[8] = system: M. avium clinical isolate Koav 21 (WT); assay: microbe, parasite or virus in culture; type: cell-based; conditions: checkerboard; for MIC: Mycobacterium avium
[9] = system: M. avium clinical isolate Koav 13 (GyrA Asp95Gly); type: cell-based, M. avium subsp. hominissuis
[10] = system: M. avium clinical isolate Koav 25 (WT); assay: microbe, parasite or virus in culture; type: cell-based; conditions: Mycobacterium avium, drug alone, day 14, read-out: MIC
[11] = system: M. avium clinical isolate Koav 20 (WT); assay: microbe, parasite or virus in culture; type: cell-based; conditions: Mycobacterium avium, drug alone, day 14, read-out: MIC
[12] = system: M. avium clinical isolate Koav 15 (WT); assay: microbe, parasite or virus in culture; type: cell-based; conditions: checkerboard; for MIC: Mycobacterium avium
[13] = system: M. avium clinical isolate Koav 1 (WT); assay: microbe, parasite or virus in culture; type: cell-based; conditions: Mycobacterium avium, drug alone, day 14, read-out: MIC
[14] = system: M. avium clinical isolate Koav 20 (WT); assay: microbe, parasite or virus in culture; type: cell-based; conditions: Mycobacterium avium, Koav 20 (K 20), WT; checkerboard, single replicates; read-out: MIC of drug alone
[15] = system: M. avium clinical isolate Koav 21 (WT); assay: microbe, parasite or virus in culture; type: cell-based; conditions: Mycobacterium avium, drug alone, day 14, read-out: MIC
[16] = system: M. avium clinical isolate Koav 13 (GyrA Asp95Gly); type: cell-based, M. avium subsp. hominissuis; remark: listed apart in the source
[17] = system: M. avium clinical isolate Koav 19 (WT); assay: microbe, parasite or virus in culture; type: cell-based; conditions: Mycobacterium avium, drug alone, day 14, read-out: MIC
[18] = system: M. avium clinical isolate Koav 11 (GyrA Asp95Tyr); type: cell-based, M. avium subsp. hominissuis
[19] = system: M. avium clinical isolate Koav 3 (GyrA Asp95Gly); type: cell-based, M. avium subsp. hominissuis; remark: listed apart in the source
[20] = system: M. avium clinical isolate Cl-A-2 (GyrA Asp95Tyr); type: cell-based, M. avium subsp. hominissuis; remark: listed apart in the source
[21] = system: M. avium clinical isolate Koav 25 (WT); assay: microbe, parasite or virus in culture; type: cell-based; conditions: for MIC: Mycobacterium avium

CC[C@@H](CO)NCCN[C@@H](CC)CO [EMB, ethambutol]
MIC [1]: 16 mg/L (≈ 78.3 µM) | MIC of drug alone ([2]; Koav 2 (K 2), WT, single replicates): 32 mg/L | MIC ([2]; Koav 2 (K 2), WT, single replicates, read-out: MIC of drug alone): 16 mg/L | MIC ([2]; read-out: MIC of INH or EMB with WQ-3810, Koav 2 (K 2), WT): 8 mg/L | MIC of INH or EMB with WQ-3810 ([3]; Koav 1 (K 1), WT): 2 mg/L | MIC of drug alone ([3]; Koav 1 (K 1), WT, single replicates): 8 mg/L and 4 mg/L and 2 mg/L | MIC ([3]; Mycobacterium avium, read-out: MIC of INH or EMB with WQ-3810, Koav 1 (K 1), WT): 4 mg/L | MIC of INH or EMB with WQ-3810 ([4]; Koav 19 (K 19), WT, checkerboard): 8 mg/L | MIC of drug alone ([4]; Koav 19 (K 19), WT, checkerboard, single replicates): 16 mg/L | FIC of INH or EMB ([4]; Koav 19 (K 19), WT, pair with MXF): 0.5 µg/mL | FIC of INH or EMB ([4]; Koav 19 (K 19), WT, pair with WQ-3810): 0.5 µg/mL | MIC ([4]; Koav 19 (K 19), WT, checkerboard, single replicates, read-out: MIC of drug alone): 8 mg/L | MIC ([4]; read-out: MIC of INH or EMB with 1 µg/ml MXF, Koav 19 (K 19), WT, checkerboard): 8 mg/L | MIC ([4]; read-out: MIC of INH or EMB with WQ-3810, Koav 19 (K 19), WT, checkerboard): 4 mg/L | MIC of INH or EMB with 1 µg/ml MXF [5]: 4 mg/L and 2 mg/L | MIC [6]: 16 mg/L (≈ 78.3 µM) | MIC [7]: 16 mg/L (≈ 78.3 µM) | MIC of INH or EMB with 1 µg/ml MXF ([8]; Koav 21 (K 21), WT): 1 mg/L | MIC ([8]; Koav 21 (K 21), WT, single replicates, read-out: MIC of drug alone): 32 mg/L | MIC ([8]; read-out: MIC of INH or EMB with 1 µg/ml MXF, Koav 21 (K 21), WT): 2 mg/L | MIC ([8]; read-out: MIC of INH or EMB with WQ-3810, Koav 21 (K 21), WT): 16 mg/L | MIC of INH or EMB with 1 µg/ml MXF [9]: 16 mg/L | MIC of INH or EMB with WQ-3810 [9]: 8 mg/L and 16 mg/L | MIC of drug alone [9]: 32 mg/L | MIC [10]: 32 mg/L (≈ 157 µM) | MIC [11]: 2 mg/L (≈ 9.79 µM) | MIC of INH or EMB with 1 µg/ml MXF ([12]; Koav 15 (K 15), WT): 4 mg/L | MIC of INH or EMB with WQ-3810 ([12]; Koav 15 (K 15), WT): 8 mg/L | MIC ([12]; Koav 15 (K 15), WT, single replicates, read-out: MIC of drug alone): 16 mg/L | MIC ([12]; read-out: MIC of INH or EMB with 1 µg/ml MXF, Koav 15 (K 15), WT): 8 mg/L | MIC ([12]; read-out: MIC of INH or EMB with WQ-3810, Koav 15 (K 15), WT): 4 mg/L | MIC [13]: 2 mg/L (≈ 9.79 µM) | MIC [14]: 2 mg/L | MIC [15]: 32 mg/L (≈ 157 µM) | MIC [16]: 32 mg/L (≈ 157 µM) | MIC [17]: 16 mg/L (≈ 78.3 µM) | MIC [18]: 16 mg/L (≈ 78.3 µM) | MIC [19]: 16 mg/L (≈ 78.3 µM) | MIC of INH or EMB with 1 µg/ml MXF [20]: 2 mg/L and 4 mg/L | MIC of drug alone [20]: 16 mg/L | MIC of INH or EMB with 1 µg/ml MXF ([21]; Koav 25 (K 25), WT, checkerboard): 8 mg/L | FIC of INH or EMB ([21]; Koav 25 (K 25), WT, pair with WQ-3810): 0.5 µg/mL | MIC ([21]; Koav 25 (K 25), WT, checkerboard, single replicates, read-out: MIC of drug alone): 32 mg/L | MIC ([21]; read-out: MIC of INH or EMB with 1 µg/ml MXF, Koav 25 (K 25), WT, checkerboard): 16 mg/L | MIC ([21]; read-out: MIC of INH or EMB with WQ-3810, Koav 25 (K 25), WT, checkerboard): 16 mg/L
